Laboratory results as given in patent publication US20240101528A1, “SUBSTITUTED PYRAZOLO PIPERIDINE CARBOXYLIC ACIDS” (BAYER AKTIENGESELLSCHAFT, priority 2020, published 2024).
Structures can show the parent of a compound that is named as a salt.

Molecular target: T1, recombinant guanylate cyclase reporter cell line (Rattus norvegicus, UniProt P20595)
T1 construct: expressed in transfected cells
T1 sequence (P20595 1-619): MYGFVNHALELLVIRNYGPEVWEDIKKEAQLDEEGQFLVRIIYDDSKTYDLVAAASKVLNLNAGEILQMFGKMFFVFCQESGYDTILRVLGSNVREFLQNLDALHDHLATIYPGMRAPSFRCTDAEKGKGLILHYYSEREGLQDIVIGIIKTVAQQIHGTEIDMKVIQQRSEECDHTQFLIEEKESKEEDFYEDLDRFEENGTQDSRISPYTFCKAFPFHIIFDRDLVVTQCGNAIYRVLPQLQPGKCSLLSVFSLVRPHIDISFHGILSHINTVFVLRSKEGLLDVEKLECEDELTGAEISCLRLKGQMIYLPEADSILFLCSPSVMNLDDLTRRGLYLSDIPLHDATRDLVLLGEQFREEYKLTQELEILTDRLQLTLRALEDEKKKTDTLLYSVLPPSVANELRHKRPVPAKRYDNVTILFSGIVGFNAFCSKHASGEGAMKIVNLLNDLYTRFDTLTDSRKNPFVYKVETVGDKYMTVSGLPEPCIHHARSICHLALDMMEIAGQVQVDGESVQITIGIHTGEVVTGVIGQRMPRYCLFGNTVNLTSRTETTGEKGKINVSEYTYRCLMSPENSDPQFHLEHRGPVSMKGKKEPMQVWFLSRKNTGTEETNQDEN
T1 sequence (P19686 1-690 partner): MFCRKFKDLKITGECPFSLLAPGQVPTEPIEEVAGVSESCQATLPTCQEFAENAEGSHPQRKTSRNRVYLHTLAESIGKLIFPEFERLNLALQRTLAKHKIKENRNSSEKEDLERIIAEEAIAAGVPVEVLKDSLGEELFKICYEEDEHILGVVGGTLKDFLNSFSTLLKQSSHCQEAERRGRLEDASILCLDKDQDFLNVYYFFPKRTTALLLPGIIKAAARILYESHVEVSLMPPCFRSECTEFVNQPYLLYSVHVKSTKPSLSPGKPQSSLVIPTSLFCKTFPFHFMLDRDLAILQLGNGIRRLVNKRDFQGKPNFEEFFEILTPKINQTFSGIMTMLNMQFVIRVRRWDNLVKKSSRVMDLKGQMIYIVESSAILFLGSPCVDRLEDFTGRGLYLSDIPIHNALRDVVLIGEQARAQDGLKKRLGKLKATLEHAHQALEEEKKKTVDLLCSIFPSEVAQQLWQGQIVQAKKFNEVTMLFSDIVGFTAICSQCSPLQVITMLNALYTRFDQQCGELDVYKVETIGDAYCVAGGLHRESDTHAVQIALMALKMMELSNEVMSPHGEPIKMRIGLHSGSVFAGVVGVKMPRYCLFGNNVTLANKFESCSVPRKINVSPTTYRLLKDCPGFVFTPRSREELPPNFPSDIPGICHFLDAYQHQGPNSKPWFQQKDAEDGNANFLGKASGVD
Experiment: Effect on a recombinant guanylate cyclase reporter cell line
Type: cell-based
Conditions: for EC50: half maximal effective concentration; for MEC: minimum effective concentration
Method: B-1. Effect on a Recombinant Guanylate Cyclase Reporter Cell Line
The cellular activity of the compounds according to the invention was determined using a recombinant guanylate cyclase reporter cell line, as described in F. Wunder et al., Anal. Biochem. 339, 104-112 (2005).

SMILES | EC50 [nM] | MEC [nM]
O=C(O)c1cnn(C2CCCN(c3cc(Cl)ccc3-c3ccc(N4CCN(CCC(F)(F)F)CC4)nc3)C2)c1C(F)F (single isomer, unassigned; enantiomer 2) [Example 67, 1-[1-(5-Chloro-2-{6-[4-(3,3,3-trifluoropropyl)piperazin-1-yl]pyridin-3-yl}phenyl)piperidin-3-yl]-5-(difluoromethyl)-1H-pyrazole-4-carboxylic acid hydrochloride (Enantiomer 2)] | < 1 | <0.3
CCN1CCN(c2ccc(-c3ccc(C(F)(F)F)cc3N3CCCC(n4ncc(C(=O)O)c4C(F)F)C3)cc2)CC1 (single isomer, unassigned; enantiomer 2) [Example 74, 5-(Difluoromethyl)-1-{1-[4′-(4-ethylpiperazin-1-yl)-4-(trifluoromethyl)[biphenyl]-2-yl]piperidin-3-yl}-1H-pyrazole-4-carboxylic acid hydrochloride (Enantiomer 2)] | 79.5 | 10.0
O=C(O)c1cnn(C2CCCN(c3cc(Cl)ccc3-c3ccc(N4CCN(C5CC5)CC4)cc3)C2)c1C(F)F (single isomer, unassigned; enantiomer 2) [Example 9, 1-{1-[4-Chloro-4′-(4-cyclopropylpiperazin-1-yl)[biphenyl]-2-yl]piperidin-3-yl}-5-(difluoromethyl)-1H-pyrazole-4-carboxylic acid hydrochloride (Enantiomer 2)] | 36.5 | 3.0
O=C(O)c1cnn(C2CCCN(c3cc(Cl)ccc3-c3ccc(N4CCN(CC5CC5C(F)(F)F)CC4)cc3)C2)c1C(F)F (mixture of isomers) [Example 38, 1-{1-[4-Chloro-4′-(4-{[cis-2-(trifluoromethyl)cyclopropyl]methyl}piperazin-1-yl) [biphenyl]-2-yl]piperidin-3-yl}-5-(difluoromethyl)-1H-pyrazole-4-carboxylic acid hydrochloride (Diastereoisomeric Mixture 1)] | 7.1 | 1.0
CCN1CCN(c2ccc(-c3ccc(Cl)cc3N3CCCC(n4ncc(C(=O)O)c4C(F)F)C3)cc2)CC1 (single isomer, unassigned; enantiomer 2) [Example 4, 1-{1-[4-Chloro-4′-(4-ethylpiperazin-1-yl)[biphenyl]-2-yl]piperidin-3-yl}-5-(difluoromethyl)-1H-pyrazole-4-carboxylic acid hydrochloride (Enantiomer 2)] | 13 | 1.3
O=C(O)c1cnn(C2CCCN(c3cc(Cl)ccc3-c3ccc(N4CCN(CC(F)F)CC4)cc3)C2)c1C(F)F (single isomer, unassigned; enantiomer 1) [Example 18, 1-[1-{4-Chloro-4′-[4-(2,2-difluoroethyl)piperazin-1-yl][biphenyl]-2-yl}piperidin-3-yl]-5-(difluoromethyl)-1H-pyrazole-4-carboxylic acid hydrochloride (Enantiomer 1)] | < 1 | 0.3
O=C(O)c1cnn(C2CCCN(c3cc(Cl)ccc3-c3ccc(N4CCN(CC5CC5(F)F)CC4)cc3)C2)c1C(F)F (single isomer, unassigned; diastereomer 4) [Example 31, 1-{1-[4-Chloro-4′-(4-{[2,2-difluorocyclopropyl]methyl}piperazin-1-yl)[biphenyl]-2-yl]piperidin-3-yl}-5-(difluoromethyl)-1H-pyrazole-4-carboxylic acid hydrochloride (Diastereomer 4)] | 5.1 | 1.0
O=C(O)c1cnn(C2CCCN(c3cc(Cl)ccc3-c3ccc(N4CCN(CC5CC(F)(F)C5)CC4)cc3)C2)c1C(F)F (single isomer, unassigned; enantiomer 1) [Example 15, 1-[1-(4-Chloro-4′-{4-[(3,3-difluorocyclobutyl)methyl]piperazin-1-yl}[biphenyl]-2-yl)piperidin-3-yl]-5-(difluoromethyl)-1H-pyrazole-4-carboxylic acid hydrochloride (Enantiomer 1)] | 6.7 | 0.6
O=C(O)c1cnn(C2CCCN(c3cc(Cl)ccc3-c3ccc(N4CCN(CC5CC5(F)F)CC4)cc3)C2)c1C(F)F (single isomer, unassigned; diastereomer 1) [Example 28, 1-{1-[4-Chloro-4′-(4-{[2,2-difluorocyclopropyl]methyl}piperazin-1-yl)[biphenyl]-2-yl]piperidin-3-yl}-5-(difluoromethyl)-1H-pyrazole-4-carboxylic acid hydrochloride (Diastereomer 1)] | 0.8 | 0.3
O=C(O)c1cnn(C2CCCN(c3cc(Cl)ccc3-c3ccc(N4CCN(CC5CCC5)CC4)cc3)C2)c1C(F)F (single isomer, unassigned; enantiomer 2) [Example 14, 1-[1-{4-Chloro-4′-[4-(cyclobutylmethyl)piperazin-1-yl][biphenyl]-2-yl}piperidin-3-yl]-5-(difluoromethyl)-1H-pyrazole-4-carboxylic acid hydrochloride (Enantiomer 2)] | 13.2 | 1.0
O=C(O)c1cnn(C2CCCN(c3cc(Cl)ccc3-c3ccc(N4CCN(CC5CC5F)CC4)cc3)C2)c1C(F)F (single isomer, unassigned; diastereomer 4) [Example 34, 1-[1-[5-Chloro-2-[4-[4-[(trans-2-fluorocyclopropyl)methyl]piperazin-1-yl]phenyl]phenyl]-3-piperidyl]-5-(difluoromethyl)pyrazole-4-carboxylic acid hydrochloride (Diastereomer 4)] | 3.4 | 0.3
O=C(O)c1cnn(C2CCCN(c3cc(Cl)ccc3-c3ccc(N4CCN(CC5(C(F)(F)F)CC5)CC4)cc3)C2)c1C(F)F (single isomer, unassigned; enantiomer 2) [Example 40, 1-{1-[4-Chloro-4′-(4-{[1-(trifluoromethyl)cyclopropyl]methyl}piperazin-1-yl) [biphenyl]-2-yl]piperidin-3-yl}-5-(difluoromethyl)-1H-pyrazole-4-carboxylic acid hydrochloride (Enantiomer 2)] | 11.8 | 1.0
O=C(O)c1cnn(C2CCCN(c3cc(Cl)ccc3-c3ccc(N4CCN(CC5CC5)CC4)cc3)C2)c1C(F)F (single isomer, unassigned; enantiomer 1) [Example 10, 1-[1-{4-Chloro-4′-[4-(cyclopropylmethyl)piperazin-1-yl][1,1′-biphenyl]-2-yl}piperidin-3-yl]-5-(difluoromethyl)-1H-pyrazole-4-carboxylic acid hydrochloride (Enantiomer 1)] | 9.2 | 0.8
O=C(O)c1cnn(C2CCCN(c3cc(Cl)ccc3-c3ccc(N4CCN(C(=O)[C@H]5C[C@H]5F)CC4)cc3)C2)c1C(F)F (single isomer, unassigned; stereoisomer 2) [Example 35] | 11.3 | 2.0
O=C(O)c1cnn(C2CCCN(c3cc(Cl)ccc3-c3ccc(N4CCN(CC5CC5(F)F)CC4)cc3)C2)c1C(F)F (single isomer, unassigned; diastereomer 2) [Example 29, 1-{1-[4-Chloro-4′-(4-{[2,2-difluorocyclopropyl]methyl}piperazin-1-yl)[biphenyl]-2-yl]piperidin-3-yl}-5-(difluoromethyl)-1H-pyrazole-4-carboxylic acid hydrochloride (Diastereomer 2)] | 2 | 0.3
CC(C)N1CCN(c2ccc(-c3ccc(Cl)cc3N3CCCC(n4ncc(C(=O)O)c4C(F)F)C3)cc2)CC1 (single isomer, unassigned; enantiomer 2) [Example 7, 1-{1-[4-Chloro-4′-(4-isopropylpiperazin-1-yl)[biphenyl]-2-yl]piperidin-3-yl}-5-(difluoromethyl)-1H-pyrazole-4-carboxylic acid hydrochloride (Enantiomer 2)] | 43.3 | 10.0
